{
  "source": "BindingDB's records for doi:10.1016/j.bioorg.2016.03.010",
  "about": "(Universiti Teknologi Mara (Uitm), Puncak Alam Campus, 2016)",
  "data": [
    {"target": "Urease (Canavalia ensiformis, UniProt P07374)", "sequence (P07374 whole entry)": "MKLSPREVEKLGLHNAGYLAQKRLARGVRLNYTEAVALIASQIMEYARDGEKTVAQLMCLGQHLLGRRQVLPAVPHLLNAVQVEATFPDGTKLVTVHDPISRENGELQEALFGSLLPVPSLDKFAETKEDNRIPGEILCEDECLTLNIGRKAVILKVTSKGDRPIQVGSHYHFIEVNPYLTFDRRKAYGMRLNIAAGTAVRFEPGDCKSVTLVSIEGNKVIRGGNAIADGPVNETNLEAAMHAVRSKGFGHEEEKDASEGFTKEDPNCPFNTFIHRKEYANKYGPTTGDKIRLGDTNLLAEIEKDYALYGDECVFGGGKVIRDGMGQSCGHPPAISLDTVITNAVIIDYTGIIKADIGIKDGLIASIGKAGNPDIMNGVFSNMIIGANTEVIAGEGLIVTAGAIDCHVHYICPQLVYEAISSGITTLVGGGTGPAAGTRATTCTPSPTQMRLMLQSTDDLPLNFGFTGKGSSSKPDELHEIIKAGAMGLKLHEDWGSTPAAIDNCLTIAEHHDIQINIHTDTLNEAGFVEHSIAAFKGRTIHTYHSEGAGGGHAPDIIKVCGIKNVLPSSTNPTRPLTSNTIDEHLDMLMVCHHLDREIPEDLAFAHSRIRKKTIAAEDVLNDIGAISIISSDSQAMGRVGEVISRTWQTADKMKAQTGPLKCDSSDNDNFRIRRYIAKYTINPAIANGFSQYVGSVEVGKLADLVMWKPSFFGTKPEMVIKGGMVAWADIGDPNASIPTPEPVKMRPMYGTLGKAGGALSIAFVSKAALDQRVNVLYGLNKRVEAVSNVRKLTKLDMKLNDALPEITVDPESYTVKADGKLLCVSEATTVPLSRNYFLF", "assay": "Urease Inhibition Assay", "conditions": "pH 6.8; 30 °C", "description": "To understand the binding modes of the compounds given in Table 1, all ligands were docked into the binding site of Urease enzyme. The top ranked conformations of each ligand were saved in a separate database for further evaluation. The docking results well correlated with the experimental results. The reaction mixtures, comprising 25 uL of enzyme (jack bean urease, Sigma aldrich) solution and 55 uL of buffers containing 100 mM urea, were incubated with 5 uL of the test compounds (0.5 mM concentration) at 30 °C for 15 min in 96-well plates. For the kinetics assessment the urea concentrations were changed from 2 to 24 mM. Urease activity was determined by measuring ammonia production using the indophenol method as described by Weatherburn. Briefly, 45 uL of phenol reagent (1% w/v phenol and 0.005% w/v sodium nitroprusside (Sigma Aldrich)) and, 70 uL of alkali reagent (0.5% w/v NaOH (Sigma Aldrich) and 0.1% active chloride NaOCl (Sigma Aldrich)) were added to each well. The increasing absorbance at 630 nm was measured after 50 min, using a microplate reader (Molecular Device, USA). All reactions were performed in triplicate in a final volume of 200 uL. The results (change in absorbance per min) were processed by using SoftMax-Pro software (molecular Device, USA). The entire assays were performed at pH 6.8.", "units": {"IC50": "µM"}, "values": [
      {"smiles": "COc1cccc(NC(=S)NNC(=O)c2ccc(-c3nc4ccccc4s3)cc2)c1", "note": "[2-(4-(benzo[d]thiazol-2-yl)benzoyl)-N-(3-methoxyphenyl)hydrazinecarbothioamide (15)]", "IC50": 28.1},
      {"smiles": "O=C(NNC(=S)Nc1ccc([N+](=O)[O-])cc1)c1ccc(-c2nc3ccccc3s2)cc1", "note": "[2-(4-(benzo[d]thiazol-2-yl)benzoyl)-N-(4-nitrophenyl)hydrazinecarbothioamide (10)]", "IC50": 1.4},
      {"smiles": "O=C(NNC(=S)Nc1ccccc1Br)c1ccc(-c2nc3ccccc3s2)cc1", "note": "[2-(4-(benzo[d]thiazol-2-yl)benzoyl)-N-(2-bromophenyl)hydrazinecarbothioamide (4)]", "IC50": 6.9},
      {"smiles": "O=C(NNC(=S)Nc1cccc(Br)c1)c1ccc(-c2nc3ccccc3s2)cc1", "note": "[4-(1,3-benzothiazol-2-yl)-N-{[(3-bromophenyl)carbamothioyl]amino}benzamide (13)]", "IC50": 11.4},
      {"smiles": "COc1ccc(NC(=S)NNC(=O)c2ccc(-c3nc4ccccc4s3)cc2)cc1", "note": "[2-(4-(benzo[d]thiazol-2-yl)benzoyl)-N-(4-methoxyphenyl)hydrazinecarbothioamide (9)]", "IC50": 13.6},
      {"smiles": "O=C(NNC(=S)Nc1ccccc1)c1ccc(-c2nc3ccccc3s2)cc1", "note": "[2-(4-(benzo[d]thiazol-2-yl)benzoyl)-N-phenylhydrazinecarbothioamide (20)]", "IC50": 19.1},
      {"smiles": "Cc1cccc(NC(=S)NNC(=O)c2ccc(-c3nc4ccccc4s3)cc2)c1", "note": "[2-(4-(benzo[d]thiazol-2-yl)benzoyl)-N-(m-tolyl)hydrazinecarbothioamide (11)]", "IC50": 18.7},
      {"smiles": "O=C(NNC(=S)Nc1ccc(Cl)cc1)c1ccc(-c2nc3ccccc3s2)cc1", "note": "[2-(4-(benzo[d]thiazol-2-yl)benzoyl)-N-(4-chlorophenyl)hydrazinecarbothioamide (8)]", "IC50": 5.5},
      {"smiles": "O=C(NNC(=S)Nc1cccc(F)c1)c1ccc(-c2nc3ccccc3s2)cc1", "note": "[2-(4-(benzo[d]thiazol-2-yl)benzoyl)-N-(3-fluorophenyl)hydrazinecarbothioamide (12)]", "IC50": 6.3},
      {"smiles": "O=C(NNC(=S)Nc1ccccc1Cl)c1ccc(-c2nc3ccccc3s2)cc1", "note": "[2-(4-(benzo[d]thiazol-2-yl)benzoyl)-N-(2-chlorophenyl)hydrazinecarbothioamide (3)]", "IC50": 4.3},
      {"smiles": "O=C(NNC(=S)NC12CC3CC(CC(C3)C1)C2)c1ccc(-c2nc3ccccc3s2)cc1", "note": "[N-(adamantan-1-yl)-2-(4-(benzo[d]thiazol-2-yl)benzoyl)hydrazinecarbothioamide (19)]", "IC50": 34.4},
      {"smiles": "O=C(NNC(=S)Nc1ccc(C(F)(F)F)cc1)c1ccc(-c2nc3ccccc3s2)cc1", "note": "[2-(4-(benzo[d]thiazol-2-yl)benzoyl)-N-(4-(trifluoromethyl)phenyl)hydrazine-carbothioamide (17)]", "IC50": 1.6},
      {"smiles": "O=C(NNC(=S)Nc1ccc(Br)cc1)c1ccc(-c2nc3ccccc3s2)cc1", "note": "[2-(4-(benzo[d]thiazol-2-yl)benzoyl)-N-(4-bromophenyl)hydrazinecarbothioamide (7)]", "IC50": 13.7},
      {"smiles": "O=C(NNC(=S)Nc1cccc([N+](=O)[O-])c1)c1ccc(-c2nc3ccccc3s2)cc1", "note": "[4-(1,3-benzothiazol-2-yl)-N-{[(3-nitrophenyl)carbamothioyl]amino}benzamide (14)]", "IC50": 5.7},
      {"smiles": "O=C(NNC(=S)Nc1ccccc1F)c1ccc(-c2nc3ccccc3s2)cc1", "note": "[2-(4-(benzo[d]thiazol-2-yl)benzoyl)-N-(2-fluorophenyl)hydrazinecarbothioamide (2)]", "IC50": 3.4},
      {"smiles": "Cc1ccc(NC(=S)NNC(=O)c2ccc(-c3nc4ccccc4s3)cc2)cc1", "note": "[2-(4-(benzo[d]thiazol-2-yl)benzoyl)-N-(p-tolyl)hydrazinecarbothioamide (5)]", "IC50": 10.4},
      {"smiles": "Cc1ccccc1NC(=S)NNC(=O)c1ccc(-c2nc3ccccc3s2)cc1", "note": "[2-(4-(benzo[d]thiazol-2-yl)benzoyl)-N-(o-tolyl)hydrazinecarbothioamide (1)]", "IC50": 7.4},
      {"smiles": "O=C(NNC(=S)Nc1ccc(F)cc1)c1ccc(-c2nc3ccccc3s2)cc1", "note": "[2-(4-(benzo[d]thiazol-2-yl)benzoyl)-N-(4-fluorophenyl)hydrazinecarbothioamide (6)]", "IC50": 2.5}
    ]}
  ]
}
